In the NIST ThermoML archive (doi:10.1016/j.tca.2010.09.004):

Test: xn = mol fraction of the nth substance listed
Details: 101 kPa, Liquid; for speed of sound: Sing-around technique in a fixed-path interferometer; for mass density: Vibrating tube method

CCCCNCCCC [dibutylamine] + CCC(C)=O
Details	mass density [kg/m3]	speed of sound [m/s]
293.15 K, x2 = 0.0568	760.739	1258.2
293.15 K, x2 = 0.1152	762.014	1255
293.15 K, x2 = 0.1488	762.814	1252.9
293.15 K, x2 = 0.1968	764.024	1250.3
293.15 K, x2 = 0.2539	765.57	1247.2
293.15 K, x2 = 0.3056	767.093	1244.4
293.15 K, x2 = 0.3564	768.675	1241.6
293.15 K, x2 = 0.4105	770.501	1238.7
293.15 K, x2 = 0.4545	772.103	1236.4
293.15 K, x2 = 0.5005	773.872	1234
293.15 K, x2 = 0.5553	776.145	1231.1
293.15 K, x2 = 0.6022	778.277	1228.9
293.15 K, x2 = 0.6554	780.87	1225.8
293.15 K, x2 = 0.7036	783.444	1223.3
293.15 K, x2 = 0.7554	786.435	1220.8
293.15 K, x2 = 0.8022	789.404	1218.7
293.15 K, x2 = 0.8598	793.411	1216.3
293.15 K, x2 = 0.9001	796.544	1215
293.15 K, x2 = 0.9513	800.881	1213.5
298.15 K, x2 = 0.0681	756.775	1237.3
298.15 K, x2 = 0.1038	757.539	1235.3
298.15 K, x2 = 0.1625	758.95	1232
298.15 K, x2 = 0.2034	759.972	1229.9
298.15 K, x2 = 0.2603	761.475	1226.7
298.15 K, x2 = 0.3112	762.929	1223.8
298.15 K, x2 = 0.3523	764.175	1221.6
298.15 K, x2 = 0.3937	765.506	1219.4
298.15 K, x2 = 0.442	767.105	1216.6
298.15 K, x2 = 0.5018	769.396	1213.3
298.15 K, x2 = 0.5455	771.147	1211
298.15 K, x2 = 0.6036	773.698	1207.7
298.15 K, x2 = 0.6514	775.963	1205.2
298.15 K, x2 = 0.7003	778.472	1202.7
298.15 K, x2 = 0.7473	781.05	1200.3
298.15 K, x2 = 0.7978	784.142	1197.9
298.15 K, x2 = 0.8456	787.356	1195.9
298.15 K, x2 = 0.9022	791.581	1193.7
298.15 K, x2 = 0.9482	795.385	1192.3
303.15 K, x2 = 0.0621	752.548	1218.9
303.15 K, x2 = 0.1098	753.539	1216.1
303.15 K, x2 = 0.1666	754.759	1212.6
303.15 K, x2 = 0.2074	755.736	1210.3
303.15 K, x2 = 0.2593	757.08	1207.2
303.15 K, x2 = 0.309	758.454	1204.7
303.15 K, x2 = 0.3551	759.79	1202
303.15 K, x2 = 0.4045	761.368	1199.3
303.15 K, x2 = 0.4566	763.133	1196.4
303.15 K, x2 = 0.4957	764.551	1194.1
303.15 K, x2 = 0.5402	766.282	1191.6
303.15 K, x2 = 0.6005	768.842	1188.2
303.15 K, x2 = 0.6493	771.091	1185.6
303.15 K, x2 = 0.7004	773.646	1182.9
303.15 K, x2 = 0.7486	776.288	1180.5
303.15 K, x2 = 0.8005	779.398	1177.9
303.15 K, x2 = 0.8456	782.362	1175.9
303.15 K, x2 = 0.899	786.254	1173.7
303.15 K, x2 = 0.953	790.578	1172

CCCNCCC [dipropylamine] + CCC(C)=O
Details	mass density [kg/m3]	speed of sound [m/s]
293.15 K, x2 = 0.0539	740.359	1208
293.15 K, x2 = 0.1021	742.443	1207.3
293.15 K, x2 = 0.1497	744.612	1206.7
293.15 K, x2 = 0.1982	746.936	1206.2
293.15 K, x2 = 0.2459	749.311	1205.7
293.15 K, x2 = 0.2983	752.034	1205.2
293.15 K, x2 = 0.3504	754.874	1204.9
293.15 K, x2 = 0.4012	757.757	1204.6
293.15 K, x2 = 0.4495	760.619	1204.3
293.15 K, x2 = 0.5068	764.2	1204.3
293.15 K, x2 = 0.5551	767.388	1204.4
293.15 K, x2 = 0.6014	770.563	1204.5
293.15 K, x2 = 0.6568	774.567	1204.8
293.15 K, x2 = 0.6968	777.603	1205.1
293.15 K, x2 = 0.7555	782.275	1205.9
293.15 K, x2 = 0.8009	786.111	1206.6
293.15 K, x2 = 0.8573	791.158	1207.8
293.15 K, x2 = 0.901	795.276	1208.9
293.15 K, x2 = 0.9479	799.908	1210.3
298.15 K, x2 = 0.0592	736.042	1186.6
298.15 K, x2 = 0.1027	737.924	1185.9
298.15 K, x2 = 0.1509	740.108	1185.2
298.15 K, x2 = 0.2001	742.441	1184.7
298.15 K, x2 = 0.2446	744.623	1184.2
298.15 K, x2 = 0.2958	747.263	1183.8
298.15 K, x2 = 0.3545	750.41	1183.3
298.15 K, x2 = 0.4003	753	1183.2
298.15 K, x2 = 0.4625	756.591	1182.5
298.15 K, x2 = 0.5006	759.04	1182.9
298.15 K, x2 = 0.5539	762.376	1182.7
298.15 K, x2 = 0.5992	765.587	1183.2
298.15 K, x2 = 0.6474	769.011	1183.4
298.15 K, x2 = 0.6987	772.61	1183.5
298.15 K, x2 = 0.7531	777.151	1184.6
298.15 K, x2 = 0.8048	781.469	1185.4
298.15 K, x2 = 0.8557	785.991	1186.6
298.15 K, x2 = 0.9041	790.463	1188
298.15 K, x2 = 0.9471	794.714	1189.1
303.15 K, x2 = 0.0658	731.678	1165.9
303.15 K, x2 = 0.0988	733.107	1165.4
303.15 K, x2 = 0.1106	733.626	1165.2
303.15 K, x2 = 0.2146	738.432	1164.1
303.15 K, x2 = 0.2595	740.626	1163.5
303.15 K, x2 = 0.3098	743.197	1163.1
303.15 K, x2 = 0.363	746.053	1162.8
303.15 K, x2 = 0.4131	748.859	1162.5
303.15 K, x2 = 0.457	751.472	1162.4
303.15 K, x2 = 0.5154	755.069	1162.3
303.15 K, x2 = 0.5554	757.601	1162.4
303.15 K, x2 = 0.6081	761.161	1162.6
303.15 K, x2 = 0.6657	765.248	1163
303.15 K, x2 = 0.7041	768.129	1163.5
303.15 K, x2 = 0.7517	771.855	1164
303.15 K, x2 = 0.8032	776.094	1164.8
303.15 K, x2 = 0.8513	780.312	1166.1
303.15 K, x2 = 0.8958	784.355	1167
303.15 K, x2 = 0.9448	789.085	1168.6

CCN(CC)CC [triethylamine] + CCC(C)=O
Details	mass density [kg/m3]	speed of sound [m/s]
293.15 K, x2 = 0.0684	730.666	1134.5
293.15 K, x2 = 0.1169	733.08	1136
293.15 K, x2 = 0.1627	735.417	1138
293.15 K, x2 = 0.2218	738.705	1140.6
293.15 K, x2 = 0.2686	741.43	1143
293.15 K, x2 = 0.3141	744.214	1145.5
293.15 K, x2 = 0.3549	746.818	1147.9
293.15 K, x2 = 0.4154	750.867	1151.7
293.15 K, x2 = 0.4636	754.264	1155
293.15 K, x2 = 0.5054	757.343	1158.2
293.15 K, x2 = 0.5572	761.332	1162.3
293.15 K, x2 = 0.61	765.576	1166.7
293.15 K, x2 = 0.6519	769.122	1170.6
293.15 K, x2 = 0.7051	773.808	1175.7
293.15 K, x2 = 0.7603	778.962	1181.4
293.15 K, x2 = 0.8057	783.447	1186.5
293.15 K, x2 = 0.8586	788.929	1192.8
293.15 K, x2 = 0.9019	793.679	1198.3
293.15 K, x2 = 0.9451	798.586	1204.1
298.15 K, x2 = 0.0709	725.999	1112.7
298.15 K, x2 = 0.1149	728.152	1114.2
298.15 K, x2 = 0.158	730.378	1115.9
298.15 K, x2 = 0.2181	733.668	1118.5
298.15 K, x2 = 0.261	736.151	1120.7
298.15 K, x2 = 0.3203	739.738	1123.9
298.15 K, x2 = 0.3605	742.292	1126.3
298.15 K, x2 = 0.4159	745.987	1129.9
298.15 K, x2 = 0.4607	749.113	1133
298.15 K, x2 = 0.5106	752.756	1136.7
298.15 K, x2 = 0.5701	757.323	1141.5
298.15 K, x2 = 0.6039	760.048	1144.5
298.15 K, x2 = 0.66	764.735	1149.5
298.15 K, x2 = 0.7122	769.362	1154.6
298.15 K, x2 = 0.7604	773.883	1159.8
298.15 K, x2 = 0.8023	777.983	1164.4
298.15 K, x2 = 0.8437	782.252	1169.6
298.15 K, x2 = 0.8921	787.444	1175.7
298.15 K, x2 = 0.9456	793.453	1182.8
303.15 K, x2 = 0.0686	721.221	1092.2
303.15 K, x2 = 0.1149	723.47	1093.7
303.15 K, x2 = 0.1643	726.011	1095.6
303.15 K, x2 = 0.2101	728.487	1097.6
303.15 K, x2 = 0.2639	731.565	1100.3
303.15 K, x2 = 0.3102	734.326	1102.7
303.15 K, x2 = 0.3502	736.816	1105.1
303.15 K, x2 = 0.3869	739.189	1107.4
303.15 K, x2 = 0.45	743.482	1111.7
303.15 K, x2 = 0.5081	747.667	1116
303.15 K, x2 = 0.5652	752.023	1120.6
303.15 K, x2 = 0.6051	755.192	1124
303.15 K, x2 = 0.6561	759.446	1128.7
303.15 K, x2 = 0.7087	764.061	1134
303.15 K, x2 = 0.763	769.188	1140
303.15 K, x2 = 0.7945	772.2	1143.5
303.15 K, x2 = 0.8542	778.238	1150.5
303.15 K, x2 = 0.8987	783.012	1156.3
303.15 K, x2 = 0.95	788.818	1163.4
